Experimental data taken from PMC6194020, “Cryo-EM structures of human STEAP4 reveal mechanism of iron(III) reduction” (Nature Communications, 2018).
Positions count from the first letter of the chain named. Names may count otherwise. One block for each molecule: values may come before it.

Assays:
STEAP4EM [1] = target: T1, STEAP4EM (Homo sapiens, UniProt Q687X5); experiment: ferric-reductase assay with FMN instead of FAD; format: biochemical; settings: FMN in place of FAD; construct (STEAP4EM or full length) not stated in main text
T1 construct: gene STEAP4; residues K18-Q456 (deltaN17 deltaC3), C-terminal GFP-Strep3 tag removed by TEV; codon-optimised, HEK293 GNTI- cells; digitonin-solubilised homotrimer; cytosolic oxidoreductase domain plus transmembrane domain
T1 sequence (Q687X5 18-456): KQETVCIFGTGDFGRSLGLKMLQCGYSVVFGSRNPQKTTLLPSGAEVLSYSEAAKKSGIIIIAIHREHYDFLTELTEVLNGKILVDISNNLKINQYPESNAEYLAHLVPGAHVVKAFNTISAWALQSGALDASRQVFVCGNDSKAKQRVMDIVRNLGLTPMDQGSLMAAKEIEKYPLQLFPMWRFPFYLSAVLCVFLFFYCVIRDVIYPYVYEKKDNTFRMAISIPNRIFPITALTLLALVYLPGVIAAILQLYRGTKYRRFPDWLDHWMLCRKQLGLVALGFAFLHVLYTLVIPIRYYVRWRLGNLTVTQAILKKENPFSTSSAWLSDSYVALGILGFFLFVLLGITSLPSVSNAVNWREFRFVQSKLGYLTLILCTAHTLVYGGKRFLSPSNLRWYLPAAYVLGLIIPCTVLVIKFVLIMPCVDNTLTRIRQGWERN

[2] = target: T2, GFP-tagged full-length STEAP4 (Homo sapiens, UniProt Q687X5); experiment: ferrozine ferric-reductase assay, FAD varied; format: biochemical; settings: 200 µM Fe3+-NTA, 75 µM NADPH, 37 °C, SEC buffer pH 5.5, digitonin
T2 construct: full-length, C-terminal GFP-Strep3 tag kept; detergent-purified (digitonin), trimer
T2 sequence (Q687X5 1-459): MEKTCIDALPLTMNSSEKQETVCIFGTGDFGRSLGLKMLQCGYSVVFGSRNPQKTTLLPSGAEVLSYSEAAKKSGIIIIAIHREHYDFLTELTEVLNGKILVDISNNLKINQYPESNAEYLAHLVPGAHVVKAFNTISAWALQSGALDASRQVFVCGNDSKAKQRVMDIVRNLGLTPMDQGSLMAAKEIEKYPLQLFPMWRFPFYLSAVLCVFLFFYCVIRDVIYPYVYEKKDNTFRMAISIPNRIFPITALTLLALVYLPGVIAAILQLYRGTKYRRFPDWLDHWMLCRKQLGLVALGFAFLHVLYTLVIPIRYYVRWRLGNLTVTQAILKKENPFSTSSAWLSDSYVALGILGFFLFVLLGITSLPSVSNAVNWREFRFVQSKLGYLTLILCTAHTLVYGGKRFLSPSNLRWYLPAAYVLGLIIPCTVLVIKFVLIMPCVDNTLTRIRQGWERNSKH

STEAP4EM [3] = target: T1, STEAP4EM; experiment: ferrozine ferric-reductase assay, FAD varied, binding curve fit; format: biochemical; settings: 200 µM Fe3+-NTA, 75 µM NADPH, 37 °C, SEC buffer pH 5.5, digitonin; Kd from activity curve; also seen in cryo-EM structures
[4] = target: STEAP4EM (human STEAP4 residues K18-Q456, ΔN17ΔC3), non-TEV cleaved, with C-terminal GFP-Strep3 tag (human); experiment: SEC-MALS; non-TEV cleaved STEAP4EM on Superdex200 10/300 increase in 20 mM Tris pH 8.0, 150 mM NaCl, 0.08% digitonin, 0.75 ml/min; protein conjugate analysis to separate protein and micelle
[5] = target: T2, GFP-tagged full-length STEAP4; experiment: ferrozine ferric-reductase assay, NADPH varied; format: biochemical; settings: 200 µM Fe3+-NTA, 10 µM FAD, 37 °C, SEC buffer pH 5.5, digitonin
[6] = target: T3, GFP-tagged full-length STEAP4 (Homo sapiens, UniProt Q687X5, S138Q); experiment: ferrozine ferric-reductase assay, NADPH varied; format: biochemical; settings: 200 µM Fe3+-NTA, 10 µM FAD, 37 °C, SEC buffer pH 5.5, digitonin
T3 construct: full-length, C-terminal GFP-Strep3 tag kept; detergent-purified (digitonin), trimer
T3 sequence (Q687X5 1-459 S138Q): T2 sequence (Q687X5 1-459) with S138Q

[7] = substrate: NC(=O)C1=CN([C@@H]2O[C@H](COP(=O)(O)OP(=O)(O)OC[C@H]3O[C@@H](n4cnc5c(N)ncnc54)[C@H](OP(=O)(O)O)[C@@H]3O)[C@@H](O)[C@H]2O)C=CC1; experiment: ferrozine ferric-reductase assay, NADPH varied; format: biochemical, Homo sapiens; settings: 200 µM Fe3+-NTA, 10 µM FAD, 37 °C, SEC buffer pH 5.5, digitonin, also seen in cryo-EM structure
[8] = target: the molecule itself; experiment: not stated; purified S138Q mutant; data in Supplementary Fig. 13

Molecule: Cc1cc2nc3c(=O)[nH]c(=O)nc-3n(C[C@H](O)[C@H](O)[C@H](O)COP(=O)(O)O)c2cc1C [FMN]
ferric-reductase assay with FMN instead of FAD (STEAP4EM [1]): FMN may act as a cofactor in STEAP4-catalyzed iron reduction

Kd (STEAP4EM [3]): 1200 nM
Molecule: Cc1cc2nc3c(=O)[nH]c(=O)nc-3n(C[C@H](O)[C@H](O)[C@H](O)COP(=O)(O)OP(=O)(O)OC[C@H]3O[C@@H](n4cnc5c(N)ncnc54)[C@H](O)[C@@H]3O)c2cc1C [FAD]
ferrozine ferric-reductase assay, FAD varied [2]: full-length STEAP4 wildtype (WT) and S138Q mutant with varying FAD concentrations

stoichiometry N [4]: 3
Molecule: STEAP4EM (human STEAP4 residues K18-Q456, ΔN17ΔC3), non-TEV cleaved, with C-terminal GFP-Strep3 tag (enzyme)

Molecule: NC(=O)C1=CN([C@@H]2O[C@H](COP(=O)(O)OP(=O)(O)OC[C@H]3O[C@@H](n4cnc5c(N)ncnc54)[C@H](OP(=O)(O)O)[C@@H]3O)[C@@H](O)[C@H]2O)C=CC1 [NADPH]
ferrozine ferric-reductase assay, NADPH varied [5]: full-length STEAP4 WT and S138Q mutant with varying NADPH concentrations
ferrozine ferric-reductase assay, NADPH varied [6]: displayed strongly impaired ferric-reductase activity

B1: STEAP4EM (Homo sapiens) (protein)
chain: T1 sequence (Q687X5 18-456)
notes: residues K18-Q456 (deltaN17 deltaC3), C-terminal GFP-Strep3 tag removed by TEV; codon-optimised, HEK293 GNTI- cells; digitonin-solubilised homotrimer; cytosolic oxidoreductase domain plus transmembrane domain
Km [7]: 4.2 µM

B2: full-length human STEAP4 S138Q mutant (enzyme, UniProt Q687X5 1-459, looked up)
chain: T2 sequence (Q687X5 1-459) with S138Q
notes: six-transmembrane epithelial antigen of the prostate 4 (STEAP4), human, full length, with S138Q; source: detergent-purified
stoichiometry N [8]: 3
